Experiment [1] addresses T1, PRMT5 (Homo sapiens, UniProt O14744).
T1 construct: purchased Viva (custom protein)
Briefly: PRMT5 IC50 assay in the presence of SAM as cofactor. It counts as biochemical. The method, boiled down:
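Three cofactor conditions are run: SAM-bound, MTA-bound and cofactor-free enzyme. IC50 is read from each; for the SAM and MTA arms it is divided by 1.5 and 13.5 respectively to give Ki.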

Experiment [2] has as its target T1, PRMT5. Kind of experiment: PRMT5 IC50 assay with no cofactor. It counts as biochemical. The method, boiled down: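 Enzyme: human PRMT5. Conditions: plus SAM, plus MTA, or cofactor-free. Output: IC50 (μM); Ki via IC50/1.5 (SAM) or IC50/13.5 (MTA).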
The target of experiment [3] is T1, PRMT5. Kind of experiment: PRMT5 IC50 assay in the presence of MTA as cofactor. Conditions: for IC50: PRMT5, MTA as cofactor. It counts as biochemical. The method, boiled down:
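MTA-dependent versus SAM-dependent inhibition of human PRMT5 was assessed by IC50; conversion factors of 13.5 and 1.5 gave the corresponding Ki.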

The subject of experiment [4] is HAP1 MTAP-intact. Kind of experiment: SDMA in-cell western assay, HAP1 MTAP-intact cell line. As to conditions: Homo sapiens. The experiment is classed as cell-based. The gist of the method: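 Using an MTAP-isogenic HAP1 cell pair, inhibition of SDMA formation is read by in-cell western and expressed as IC50. MTAP-selectivity is assigned where the ratio between lines reaches 3 fold or greater.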

The test system of experiment [5] is HAP1 MTAP-deleted. Briefly: SDMA in-cell western assay, HAP1 MTAP-deleted cell line. The experiment is classed as cell-based. Conditions: for IC50: Homo sapiens, HAP1 MTAP-deleted cell line; for MTAP Intact/Deleted Ratio: IC50 ratio HAP1 MTAP-intact / HAP1 MTAP-deleted. The method, boiled down:
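In-cell western for SDMA marks; MTAP-deleted (null) HAP1 background; values given as IC50.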

[6] abbreviates: ratio between the Ki in the presence of SAM and the Ki in the presence of MTA.
[7] abbreviates: ratio between Ki in the presence of SAM and Ki in the presence of MTA.

This note sets out measurements from patent US11986471B2, “Compounds and methods of use” (Tango Therapeutics, Inc., priority 2018, dated 2024).

What is called IC50 is the concentration at which inhibition is half-maximal.

T1 sequence (O14744 whole entry): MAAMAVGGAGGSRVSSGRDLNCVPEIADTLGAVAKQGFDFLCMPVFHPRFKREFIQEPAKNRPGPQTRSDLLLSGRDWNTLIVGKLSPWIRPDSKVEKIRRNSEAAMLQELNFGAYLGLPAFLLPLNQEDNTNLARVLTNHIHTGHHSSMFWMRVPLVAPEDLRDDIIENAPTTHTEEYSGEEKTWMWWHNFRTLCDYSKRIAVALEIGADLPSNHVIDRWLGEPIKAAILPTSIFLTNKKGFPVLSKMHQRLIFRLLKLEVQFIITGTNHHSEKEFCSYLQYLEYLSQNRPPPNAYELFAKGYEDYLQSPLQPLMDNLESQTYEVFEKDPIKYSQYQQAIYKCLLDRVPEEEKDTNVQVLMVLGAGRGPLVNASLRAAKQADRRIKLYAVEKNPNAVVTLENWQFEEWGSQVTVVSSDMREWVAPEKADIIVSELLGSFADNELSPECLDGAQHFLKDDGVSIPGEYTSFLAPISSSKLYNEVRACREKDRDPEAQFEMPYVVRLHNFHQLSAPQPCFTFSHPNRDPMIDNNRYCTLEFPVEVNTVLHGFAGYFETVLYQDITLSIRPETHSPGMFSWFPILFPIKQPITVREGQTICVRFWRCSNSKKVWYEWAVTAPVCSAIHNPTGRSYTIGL
T1 sequence (Q9BQA1 whole entry partner): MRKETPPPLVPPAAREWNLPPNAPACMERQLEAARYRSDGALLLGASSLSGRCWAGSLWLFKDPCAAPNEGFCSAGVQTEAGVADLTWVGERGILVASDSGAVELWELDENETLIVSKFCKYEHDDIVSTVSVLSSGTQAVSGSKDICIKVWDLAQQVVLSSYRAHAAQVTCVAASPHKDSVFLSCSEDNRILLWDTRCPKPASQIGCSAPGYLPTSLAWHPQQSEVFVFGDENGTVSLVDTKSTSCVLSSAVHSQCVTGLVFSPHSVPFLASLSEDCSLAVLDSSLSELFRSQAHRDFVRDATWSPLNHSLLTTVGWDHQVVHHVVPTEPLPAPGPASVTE

For the molecule `O=C(NC[C@H](O)CN1CCc2cc(OCc3cnco3)ccc2C1)c1ccc2c(c1)CCN(C(=O)c1ccc(Br)cc1)C2` [Compound 561], the IC50 in experiment [1] was 0.05 to 0.5 µM; in experiment [2], 0.5 to 5 µM; in experiment [3], 0.05 to 0.5 µM; in experiment [4] it was not below 10 µM; in experiment [5], 1 to 10 µM. For the same molecule, the “SAM/MTA Ratio” value in experiment [3] (setting [6]) is “A (a Ki ratio greater than or equal to 10 fold between the Ki in the presence of SAM and the Ki in the presence of MTA)”. Also, in experiment [5], the “MTAP Intact/Deleted Ratio” value is “B* (an IC50 ratio greater than or equal to 3 fold but lower than 10 fold between the IC50 in the HAP1 MTAP-intact cell line and the HAP1 MTAP-deleted cell line)”.
With `CC(=O)N1CCC(Nc2ccnc(C(=O)NC[C@H](O)CN3CCc4cc(OCc5cnco5)ccc4C3)c2)CC1` [Compound 507, (S)-4-((1-acetylpiperidin-4-yl)amino)-N-(2-hydroxy-3-(6-(oxazol-5-ylmethoxy)-3,4-dihydroisoquinolin-2(1H)-yl)propyl)picolinamide], the IC50 in experiment [1] was 0.05 to 0.5 µM; in experiment [2], 0.5 to 5 µM; in experiment [3], 0.05 to 0.5 µM; in experiment [4], not below 10 µM; in experiment [5], 1 to 10 µM. For the same molecule, the “SAM/MTA Ratio” value in experiment [3] (setting [6]) was “A (a Ki ratio greater than or equal to 10 fold between the Ki in the presence of SAM and the Ki in the presence of MTA)”. Further, in experiment [5], the “MTAP Intact/Deleted Ratio” value was “B* (an IC50 ratio greater than or equal to 3 fold but lower than 10 fold between the IC50 in the HAP1 MTAP-intact cell line and the HAP1 MTAP-deleted cell line)”.
`Cc1ncoc1COc1ccc2c(c1)CCN(C[C@@H](O)CNC(=O)c1cc(NC3CCC3)nc(OCCN(C)C)c1)C2` [Compound 406, 2-(cyclobutylamino)-6-[2-(dimethylamino)ethoxy]-N-[(2S)-2-hydroxy-3-{6-[(4-methyl-1,3-oxazol-5-yl)methoxy]-1,2,3,4-tetrahydroisoquinolin-2-yl}propyl]pyridine-4-carboxamide]: the IC50 in experiment [1] is 0.05 to 0.5 µM; in experiment [2] (read-out: No Co-factor IC50), 0.5 to 5 µM; in experiment [3], less than 0.05 µM; in experiment [4] it was less than 1 µM; in experiment [5], less than 1 µM. In experiment [3] (setting [7]), the “SAM/MTA Ratio” value is “A (a Ki ratio greater than or equal to 10 fold between the Ki in the presence of SAM and the Ki in the presence of MTA)”. The “MTAP Intact/Deleted Ratio” value in experiment [5] was “B* (an IC50 ratio greater than or equal to 3 fold but lower than 10 fold between the IC50 in the HAP1 MTAP-intact cell line and the HAP1 MTAP-deleted cell line)”.
Regarding `Cc1ncoc1COc1ccc2c(c1Cl)CCN(C[C@@H](O)CNC(=O)c1cc(NC3CCCCC3)ncn1)C2` [Compound 501, N-[(2S)-3-[5-chloro-6-[(4-methyl-1,3-oxazol-5-yl)methoxy]-1,2,3,4-tetrahydroisoquinolin-2-yl]-2-hydroxypropyl]-6-(cyclohexylamino)pyrimidine-4-carboxamide], the IC50 in experiment [1] is 0.05 to 0.5 µM; in experiment [2], not below 5 µM; in experiment [3], 0.05 to 0.5 µM; in experiment [4], not below 10 µM; in experiment [5], not below 10 µM. For the same molecule, the “SAM/MTA Ratio” value in experiment [3] (setting [6]) is “A (a Ki ratio greater than or equal to 10 fold between the Ki in the presence of SAM and the Ki in the presence of MTA)”. Further, in experiment [5], the “MTAP Intact/Deleted Ratio” value was “C* (an IC50 ratio of less than 3 fold between the IC50 in the HAP1 MTAP-intact cell line and the HAP1 MTAP-deleted cell line)”.
For the molecule `CCC(=O)N1CCN(c2cc(C(=O)NC[C@H](O)CN3CCc4c(ccc(OCc5ocnc5C)c4C)C3)cc(NC3CCC3)n2)CC1` [Compound 417, 2-(cyclobutylamino)-N-[(2S)-2-hydroxy-3-{5-methyl-6-[(4-methyl-1,3-oxazol-5-yl)methoxy]-1,2,3,4-tetrahydroisoquinolin-2-yl}propyl]-6-(4-propanoylpiperazin-1-yl)pyridine-4-carboxamide], the concentration for half-maximal inhibition (IC50) was 0.05 to 0.5 µM in experiment [1]; 0.5 to 5 µM in experiment [2] (read-out: No Co-factor IC50); 0.05 to 0.5 µM in experiment [3]; not below 10 µM in experiment [4]; less than 1 µM in experiment [5]. The “SAM/MTA Ratio” value in experiment [3] (setting [7]) was “A (a Ki ratio greater than or equal to 10 fold between the Ki in the presence of SAM and the Ki in the presence of MTA)”. Besides, the “MTAP Intact/Deleted Ratio” value in experiment [5] was “A* (an IC50 ratio greater than or equal to 10 fold between the IC50 in the HAP1 MTAP-intact cell line and the HAP1 MTAP-deleted cell line)”.
